Target: T1, human PAH with the R408W mutation (Homo sapiens, UniProt P00439, R408W)
T1 construct: expressed in transfected cells
T1 sequence (P00439 1-452 R408W): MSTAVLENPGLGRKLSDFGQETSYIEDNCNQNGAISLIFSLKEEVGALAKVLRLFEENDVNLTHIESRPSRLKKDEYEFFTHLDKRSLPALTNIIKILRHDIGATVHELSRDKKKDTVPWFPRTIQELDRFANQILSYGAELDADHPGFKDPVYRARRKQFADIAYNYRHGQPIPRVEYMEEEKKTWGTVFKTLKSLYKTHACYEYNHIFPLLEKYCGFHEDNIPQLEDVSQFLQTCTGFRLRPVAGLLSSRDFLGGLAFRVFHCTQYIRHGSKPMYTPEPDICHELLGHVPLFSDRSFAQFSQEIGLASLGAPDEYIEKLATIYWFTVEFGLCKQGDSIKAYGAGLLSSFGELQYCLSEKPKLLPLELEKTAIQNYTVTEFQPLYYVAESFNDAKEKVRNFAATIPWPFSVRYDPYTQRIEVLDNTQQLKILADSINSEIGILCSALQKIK
Assay: Cell Based Phenylalanine Flux Assay
Details: A375 cells expressing human R408W PAH; 24 hrs compound incubation; 13C-Tyrosine by LC-MS; average where tested multiple times; read-out: AC50
Description: Compounds were resuspended in DMSO, and 2-fold serial dilutions were performed to generate a 10-point dose curve. Compounds were added to plated cells in a total volume of 100 pal, and a final DMSO concentration of 0.5%. Each compound was tested in duplicate. Following compound addition, cells were placed in a 5% CO2, 37° C. tissue culture incubator for 24 hrs. After the incubation period, 20 μM sepiapterin and 800 μM 13C9,15N-Phenylalanine were added. After 4 hours, cell media was removed. An aliquot of 10 μl of cell media was combined with 200 μl of extraction buffer (80% acetonitrile/20% H2O) for each well. Determination of ^13C-Tyrosine concentration was assessed by liquid chromatography mass spectrometry.
Where a compound was tested multiple times, the average value of the tests is reported.

SMILES | AC50 [nM]
O=C(c1cnn(-c2ccc(F)cc2)c1)N1CCc2[nH]cnc2[C@H]1c1nc2ccccc2s1 [Example 1411] | < 500
O=C(c1cnn(-c2ccc(F)cc2)c1)N1CCc2[nH]cnc2[C@@H]1c1nc2ccccc2s1 [Example 1412, (R)-(4-(benzo[d]thiazol-2-yl)-6,7-dihydro-1H-imidazo[4,5-c]pyridin-5(4H)-yl)(1-(4-fluorophenyl)-1H-pyrazol-4-yl)methanone] | 1000 to 5000
O=C(c1nnc(-c2ccccc2)o1)N1CCc2[nH]cnc2[C@H]1c1nc2ccccc2s1 [Example 1417] | < 500
O=C(c1nnc(-c2ccccc2)o1)N1CCc2[nH]cnc2[C@@H]1c1nc2ccccc2s1 [Example 1418, (R)-(4-(benzo[d]thiazol-2-yl)-6,7-dihydro-1H-imidazo[4,5-c]pyridin-5(4H)-yl)(5-phenyl-1,3,4-oxadiazol-2-yl)methanone] | 1000 to 5000
O=C(c1nnc(-c2ccccc2)s1)N1CCc2[nH]cnc2[C@H]1c1nc2ccccc2s1 [Example 1419] | < 500
O=C(c1nnc(-c2ccccc2)s1)N1CCc2[nH]cnc2[C@@H]1c1nc2ccccc2s1 [Example 1420, (R)-(4-(benzo[d]thiazol-2-yl)-6,7-dihydro-1H-imidazo[4,5-c]pyridin-5(4H)-yl)(5-phenyl-1,3,4-thiadiazol-2-yl)methanone] | > 5000
CC(C)(C)c1ncc(C(=O)N2CCc3[nH]cnc3[C@H]2c2nc3c(F)cccc3s2)s1 [Example 1425] | < 500
CC(C)(C)c1ncc(C(=O)N2CCc3[nH]cnc3[C@@H]2c2nc3c(F)cccc3s2)s1 [Example 1426, (R)-(2-(tert-butyl)thiazol-5-yl)(4-(4-fluorobenzo[d]thiazol-2-yl)-6,7-dihydro-1H-imidazo[4,5-c]pyridin-5(4H)-yl)methanone] | 500 to 1000
CC(C)(C)c1ncc(C(=O)N2CCc3[nH]cnc3[C@@H]2c2nc3c(F)cccc3s2)o1 [Example 1429, (R)-(2-(tert-butyl)oxazol-5-yl)(4-(4-fluorobenzo[d]thiazol-2-yl)-6,7-dihydro-1H-imidazo[4,5-c]pyridin-5(4H)-yl)methanone] | 500 to 1000
CC(C)(C)c1ncc(C(=O)N2CCc3[nH]cnc3[C@H]2c2nc3c(F)cccc3s2)o1 [Example 1430] | < 500
Cc1nc(C(C)(C)C)oc1C(=O)N1CCc2[nH]cnc2[C@H]1c1nc2c(F)cccc2s1 [Example 1433] | 500 to 1000
Cc1nc(C(C)(C)C)oc1C(=O)N1CCc2[nH]cnc2[C@@H]1c1nc2c(F)cccc2s1 [Example 1434, (R)-(2-(tert-butyl)-4-methyloxazol-5-yl)(4-(4-fluorobenzo[d]thiazol-2-yl)-6,7-dihydro-1H-imidazo[4,5-c]pyridin-5(4H)-yl)methanone] | 1000 to 5000
c1cnc(N2CCc3[nH]cnc3[C@@H]2c2nc3ccccc3s2)nc1 [Example 1437, (R)-2-(5-(pyrimidin-2-yl)-4,5,6,7-tetrahydro-1H-imidazo[4,5-c]pyridin-4-yl)benzo[d]thiazole] | 1000 to 5000
c1cnc(N2CCc3[nH]cnc3[C@H]2c2nc3ccccc3s2)nc1 [Example 1438] | < 500
O=C(c1nnc(-c2ccccn2)o1)N1CCc2[nH]cnc2[C@H]1c1nc2ccccc2s1 [Example 1439] | < 500
O=C(c1nnc(-c2ccccn2)o1)N1CCc2[nH]cnc2[C@@H]1c1nc2ccccc2s1 [Example 1440, (R)-(4-(benzo[d]thiazol-2-yl)-6,7-dihydro-1H-imidazo[4,5-c]pyridin-5(4H)-yl)(5-(pyridin-2-yl)-1,3,4-oxadiazol-2-yl)methanone] | 1000 to 5000
O=C(c1nnc(C2CC2)o1)N1CCc2[nH]cnc2[C@H]1c1nc2c(F)cccc2s1 [Example 1443] | < 500
O=C(c1nnc(C2CC2)o1)N1CCc2[nH]cnc2[C@@H]1c1nc2c(F)cccc2s1 [Example 1444, (R)-(5-cyclopropyl-1,3,4-oxadiazol-2-yl)(4-(4-fluorobenzo[d]thiazol-2-yl)-6,7-dihydro-1H-imidazo[4,5-c]pyridin-5(4H)-yl)methanone] | 1000 to 5000

Further lines, results first:

AC50 [nM] | SMILES
< 500 | Cn1ncc(-c2ncc(C(=O)N3CCc4[nH]cnc4[C@H]3c3nc4ccccc4s3)s2)c1C(F)(F)F [Example 1407]
1000 to 5000 | Cn1ncc(-c2ncc(C(=O)N3CCc4[nH]cnc4[C@@H]3c3nc4ccccc4s3)s2)c1C(F)(F)F [Example 1408, (R)-(4-(benzo[d]thiazol-2-yl)-6,7-dihydro-1H-imidazo[4,5-c]pyridin-5(4H)-yl)(2-(1-methyl-5-(trifluoromethyl)-1H-pyrazol-4-yl)thiazol-5-yl)methanone]
500 to 1000 | O=C(c1cnn(C(F)F)c1)N1CCc2[nH]cnc2[C@H]1c1nc2ccccc2s1 [Example 1409]
> 5000 | O=C(c1cnn(C(F)F)c1)N1CCc2[nH]cnc2[C@@H]1c1nc2ccccc2s1 [Example 1410, (R)-(4-(benzo[d]thiazol-2-yl)-6,7-dihydro-1H-imidazo[4,5-c]pyridin-5(4H)-yl)(1-(difluoromethyl)-1H-pyrazol-4-yl)methanone]
< 500 | Cc1nc(-c2cnn(CC(F)(F)F)c2)oc1C(=O)N1CCc2[nH]cnc2[C@H]1c1nc2ccccc2s1 [Example 1413]
1000 to 5000 | Cc1nc(-c2cnn(CC(F)(F)F)c2)oc1C(=O)N1CCc2[nH]cnc2[C@@H]1c1nc2ccccc2s1 [Example 1414, (R)-(4-(benzo[d]thiazol-2-yl)-6,7-dihydro-1H-imidazo[4,5-c]pyridin-5(4H)-yl)(4-methyl-2-(1-(2,2,2-trifluoroethyl)-1H-pyrazol-4-yl)oxazol-5-yl)methanone]
< 500 | CC(C)n1cc(-c2ncc(C(=O)N3CCc4[nH]cnc4[C@H]3c3nc4ccccc4s3)o2)cn1 [Example 1415]
1000 to 5000 | CC(C)n1cc(-c2ncc(C(=O)N3CCc4[nH]cnc4[C@@H]3c3nc4ccccc4s3)o2)cn1 [Example 1416, (R)-(4-(benzo[d]thiazol-2-yl)-6,7-dihydro-1H-imidazo[4,5-c]pyridin-5(4H)-yl)(2-(1-isopropyl-1H-pyrazol-4-yl)oxazol-5-yl)methanone]
< 500 | CC(C)(C)c1ncc(C(=O)N2CCc3[nH]cnc3[C@H]2c2nc3ccccc3s2)s1 [Example 1421]
1000 to 5000 | CC(C)(C)c1ncc(C(=O)N2CCc3[nH]cnc3[C@@H]2c2nc3ccccc3s2)s1 [Example 1422, (R)-(4-(benzo[d]thiazol-2-yl)-6,7-dihydro-1H-imidazo[4,5-c]pyridin-5(4H)-yl)(2-(tert-butyl)thiazol-5-yl)methanone]
< 500 | Cc1nc(-c2cnn(C(C)C)c2)oc1C(=O)N1CCc2[nH]cnc2[C@H]1c1nc2ccccc2s1 [Example 1423]
1000 to 5000 | Cc1nc(-c2cnn(C(C)C)c2)oc1C(=O)N1CCc2[nH]cnc2[C@@H]1c1nc2ccccc2s1 [Example 1424, (R)-(4-(benzo[d]thiazol-2-yl)-6,7-dihydro-1H-imidazo[4,5-c]pyridin-5(4H)-yl)(2-(1-isopropyl-1H-pyrazol-4-yl)-4-methyloxazol-5-yl)methanone]
< 500 | CC(C)(C)c1ncc(C(=O)N2CCc3[nH]cnc3[C@H]2c2nc3ccccc3s2)o1 [Example 1427]
500 to 1000 | CC(C)(C)c1ncc(C(=O)N2CCc3[nH]cnc3[C@@H]2c2nc3ccccc3s2)o1 [Example 1428, (R)-(4-(benzo[d]thiazol-2-yl)-6,7-dihydro-1H-imidazo[4,5-c]pyridin-5(4H)-yl)(2-(tert-butyl)oxazol-5-yl)methanone]
< 500 | Cc1nc(C(C)(C)C)oc1C(=O)N1CCc2[nH]cnc2[C@H]1c1nc2ccccc2s1 [Example 1431]
1000 to 5000 | Cc1nc(C(C)(C)C)oc1C(=O)N1CCc2[nH]cnc2[C@@H]1c1nc2ccccc2s1 [Example 1432, (R)-(4-(benzo[d]thiazol-2-yl)-6,7-dihydro-1H-imidazo[4,5-c]pyridin-5(4H)-yl)(2-(tert-butyl)-4-methyloxazol-5-yl)methanone]
< 500 | CC(C)(O)c1ncc(C(=O)N2CCc3[nH]cnc3[C@H]2c2nc3ccccc3s2)s1 [Example 1435]
1000 to 5000 | CC(C)(O)c1ncc(C(=O)N2CCc3[nH]cnc3[C@@H]2c2nc3ccccc3s2)s1 [Example 1436, (R)-(4-(benzo[d]thiazol-2-yl)-6,7-dihydro-1H-imidazo[4,5-c]pyridin-5(4H)-yl)(2-(2-hydroxypropan-2-yl)thiazol-5-yl)methanone]
> 5000 | O=C(c1ocnc1-c1ccccc1)N1CCc2[nH]cnc2[C@@H]1c1nc2ccccc2s1 [Example 1441, (R)-(4-(benzo[d]thiazol-2-yl)-6,7-dihydro-1H-imidazo[4,5-c]pyridin-5(4H)-yl)(4-phenyloxazol-5-yl)methanone]
500 to 1000 | O=C(c1ocnc1-c1ccccc1)N1CCc2[nH]cnc2[C@H]1c1nc2ccccc2s1 [Example 1442]
< 500 | Cc1nc(-c2ccccn2)oc1C(=O)N1CCc2[nH]cnc2[C@H]1c1nc2c(F)cccc2s1 [Example 1445, (S)-(4-(4-fluorobenzo[d]thiazol-2-yl)-6,7-dihydro-1H-imidazo[4,5-c]pyridin-5(4H)-yl)(4-methyl-2-(pyridin-2-yl)oxazol-5-yl)methanone]
> 5000 | Cc1nc(-c2ccccn2)oc1C(=O)N1CCc2[nH]cnc2[C@@H]1c1nc2c(F)cccc2s1 [Example 1446, (R)-(4-(4-fluorobenzo[d]thiazol-2-yl)-6,7-dihydro-1H-imidazo[4,5-c]pyridin-5(4H)-yl)(4-methyl-2-(pyridin-2-yl)oxazol-5-yl)methanone]

— patent publication US20250171438A1 (Agios Pharmaceuticals, Inc., priority 2022, published 2025)
